# Reference: publication PMC7316778 (Nature Communications, 2020)
# Where “and” joins values, the source holds several entries; their conditions need not be identical. Equal values may be shown once. Read-outs that look alike come from different tables or passages of the source.
# Experiments:
# CDK2/cyclin A = CDK2/cyclin A (Homo sapiens, UniProt P24941); test: SelectScreen kinase assay
# Description: (§1) Selectivity profiling assays were performed by the Invitrogen SelectScreen™ Services. […] The concentration of ATP was selected to be equal to the KM, unless indicated otherwise.
# CDKL5 = molecular target: T1, CDKL5 (Homo sapiens, UniProt O76039); test: SelectScreen kinase assay
# T1 sequence (O76039 1-960): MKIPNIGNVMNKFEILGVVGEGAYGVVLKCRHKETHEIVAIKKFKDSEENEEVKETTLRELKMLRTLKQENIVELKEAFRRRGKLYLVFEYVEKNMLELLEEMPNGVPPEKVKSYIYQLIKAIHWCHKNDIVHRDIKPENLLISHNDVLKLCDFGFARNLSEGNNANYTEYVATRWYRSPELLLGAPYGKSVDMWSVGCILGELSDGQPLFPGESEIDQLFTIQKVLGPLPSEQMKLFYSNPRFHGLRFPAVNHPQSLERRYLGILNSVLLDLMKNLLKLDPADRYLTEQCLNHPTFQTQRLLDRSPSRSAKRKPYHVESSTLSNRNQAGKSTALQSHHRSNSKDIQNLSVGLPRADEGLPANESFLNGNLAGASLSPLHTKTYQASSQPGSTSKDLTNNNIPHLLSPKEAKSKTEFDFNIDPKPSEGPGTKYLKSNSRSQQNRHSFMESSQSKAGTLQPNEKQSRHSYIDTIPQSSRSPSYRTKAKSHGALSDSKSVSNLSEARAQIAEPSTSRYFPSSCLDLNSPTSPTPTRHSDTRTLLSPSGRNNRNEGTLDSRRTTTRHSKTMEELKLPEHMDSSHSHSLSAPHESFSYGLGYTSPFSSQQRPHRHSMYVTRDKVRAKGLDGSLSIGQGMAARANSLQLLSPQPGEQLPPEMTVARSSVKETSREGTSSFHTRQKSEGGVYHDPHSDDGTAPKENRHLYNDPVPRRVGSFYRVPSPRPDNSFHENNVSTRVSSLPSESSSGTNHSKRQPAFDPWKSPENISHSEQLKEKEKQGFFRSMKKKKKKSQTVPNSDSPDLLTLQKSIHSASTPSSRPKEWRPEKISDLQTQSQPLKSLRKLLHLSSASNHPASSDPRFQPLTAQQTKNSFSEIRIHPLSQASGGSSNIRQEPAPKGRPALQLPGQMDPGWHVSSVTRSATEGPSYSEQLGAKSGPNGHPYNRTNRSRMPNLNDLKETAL
# Description: as §1
# PDK1 Direct = molecular target: T2, PDK1 Direct (Homo sapiens, UniProt O15530); test: SelectScreen kinase assay
# T2 sequence (O15530 1-556): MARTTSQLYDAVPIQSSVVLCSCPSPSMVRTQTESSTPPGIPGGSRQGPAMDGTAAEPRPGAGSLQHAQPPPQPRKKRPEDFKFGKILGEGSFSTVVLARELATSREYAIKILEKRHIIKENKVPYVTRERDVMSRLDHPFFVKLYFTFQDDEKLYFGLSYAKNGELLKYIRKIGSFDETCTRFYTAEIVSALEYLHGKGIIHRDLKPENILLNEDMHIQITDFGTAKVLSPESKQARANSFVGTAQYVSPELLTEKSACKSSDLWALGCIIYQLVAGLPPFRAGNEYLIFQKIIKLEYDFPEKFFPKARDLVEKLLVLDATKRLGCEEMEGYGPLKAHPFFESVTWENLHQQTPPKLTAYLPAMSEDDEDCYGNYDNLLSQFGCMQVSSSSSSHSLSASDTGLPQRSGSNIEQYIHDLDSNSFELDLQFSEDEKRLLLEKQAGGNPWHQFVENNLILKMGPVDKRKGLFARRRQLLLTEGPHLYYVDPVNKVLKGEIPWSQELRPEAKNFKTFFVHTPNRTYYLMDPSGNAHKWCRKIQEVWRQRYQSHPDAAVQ
# Description: as §1
# PRKCB2 (PKC beta II) = PRKCB2 (PKC beta II) (Homo sapiens, UniProt P05771); test: SelectScreen kinase assay; conditions: 1 h, 1 μM WEL028, 1 h preincubation
# PRKCB2 (PKC beta II), sequence (P05771 1-673 isoform P05771-2): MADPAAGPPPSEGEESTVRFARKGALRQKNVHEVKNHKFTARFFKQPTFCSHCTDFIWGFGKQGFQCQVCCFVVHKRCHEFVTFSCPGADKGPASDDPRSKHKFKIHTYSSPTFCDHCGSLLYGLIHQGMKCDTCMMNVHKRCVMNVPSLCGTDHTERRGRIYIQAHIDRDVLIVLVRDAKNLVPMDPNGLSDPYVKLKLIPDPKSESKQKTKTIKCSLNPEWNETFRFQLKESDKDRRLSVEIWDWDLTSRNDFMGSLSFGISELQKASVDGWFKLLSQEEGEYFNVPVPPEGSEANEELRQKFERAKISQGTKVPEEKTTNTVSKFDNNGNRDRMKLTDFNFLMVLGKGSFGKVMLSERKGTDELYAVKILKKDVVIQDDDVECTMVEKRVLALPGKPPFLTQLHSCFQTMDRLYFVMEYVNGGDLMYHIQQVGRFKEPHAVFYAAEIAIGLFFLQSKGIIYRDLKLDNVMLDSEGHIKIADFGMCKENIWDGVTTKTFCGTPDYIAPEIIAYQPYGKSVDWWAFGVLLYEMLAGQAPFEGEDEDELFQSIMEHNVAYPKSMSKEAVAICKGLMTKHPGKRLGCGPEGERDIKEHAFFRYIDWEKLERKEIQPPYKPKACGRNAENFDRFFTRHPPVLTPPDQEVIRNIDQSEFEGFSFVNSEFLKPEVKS
# Description: as §1
# STK17B (DRAK2) = molecular target: T3, STK17B (DRAK2) (Homo sapiens, UniProt O94768); test: SelectScreen kinase assay
# T3 sequence (O94768 1-372): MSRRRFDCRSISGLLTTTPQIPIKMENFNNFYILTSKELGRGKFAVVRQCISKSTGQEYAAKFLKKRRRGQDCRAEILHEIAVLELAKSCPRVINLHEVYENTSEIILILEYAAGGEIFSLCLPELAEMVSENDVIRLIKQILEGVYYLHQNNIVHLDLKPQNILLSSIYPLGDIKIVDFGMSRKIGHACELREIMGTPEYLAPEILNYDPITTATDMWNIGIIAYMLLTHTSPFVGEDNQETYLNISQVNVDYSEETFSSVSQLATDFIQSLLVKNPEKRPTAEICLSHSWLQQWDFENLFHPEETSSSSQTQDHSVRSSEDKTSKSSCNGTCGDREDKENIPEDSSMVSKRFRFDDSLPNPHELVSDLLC
# Description: as §1
# WNK1 = WNK1 (Homo sapiens, UniProt Q9H4A3); test: SelectScreen kinase assay
# WNK1, sequence (Q9H4A3 whole entry): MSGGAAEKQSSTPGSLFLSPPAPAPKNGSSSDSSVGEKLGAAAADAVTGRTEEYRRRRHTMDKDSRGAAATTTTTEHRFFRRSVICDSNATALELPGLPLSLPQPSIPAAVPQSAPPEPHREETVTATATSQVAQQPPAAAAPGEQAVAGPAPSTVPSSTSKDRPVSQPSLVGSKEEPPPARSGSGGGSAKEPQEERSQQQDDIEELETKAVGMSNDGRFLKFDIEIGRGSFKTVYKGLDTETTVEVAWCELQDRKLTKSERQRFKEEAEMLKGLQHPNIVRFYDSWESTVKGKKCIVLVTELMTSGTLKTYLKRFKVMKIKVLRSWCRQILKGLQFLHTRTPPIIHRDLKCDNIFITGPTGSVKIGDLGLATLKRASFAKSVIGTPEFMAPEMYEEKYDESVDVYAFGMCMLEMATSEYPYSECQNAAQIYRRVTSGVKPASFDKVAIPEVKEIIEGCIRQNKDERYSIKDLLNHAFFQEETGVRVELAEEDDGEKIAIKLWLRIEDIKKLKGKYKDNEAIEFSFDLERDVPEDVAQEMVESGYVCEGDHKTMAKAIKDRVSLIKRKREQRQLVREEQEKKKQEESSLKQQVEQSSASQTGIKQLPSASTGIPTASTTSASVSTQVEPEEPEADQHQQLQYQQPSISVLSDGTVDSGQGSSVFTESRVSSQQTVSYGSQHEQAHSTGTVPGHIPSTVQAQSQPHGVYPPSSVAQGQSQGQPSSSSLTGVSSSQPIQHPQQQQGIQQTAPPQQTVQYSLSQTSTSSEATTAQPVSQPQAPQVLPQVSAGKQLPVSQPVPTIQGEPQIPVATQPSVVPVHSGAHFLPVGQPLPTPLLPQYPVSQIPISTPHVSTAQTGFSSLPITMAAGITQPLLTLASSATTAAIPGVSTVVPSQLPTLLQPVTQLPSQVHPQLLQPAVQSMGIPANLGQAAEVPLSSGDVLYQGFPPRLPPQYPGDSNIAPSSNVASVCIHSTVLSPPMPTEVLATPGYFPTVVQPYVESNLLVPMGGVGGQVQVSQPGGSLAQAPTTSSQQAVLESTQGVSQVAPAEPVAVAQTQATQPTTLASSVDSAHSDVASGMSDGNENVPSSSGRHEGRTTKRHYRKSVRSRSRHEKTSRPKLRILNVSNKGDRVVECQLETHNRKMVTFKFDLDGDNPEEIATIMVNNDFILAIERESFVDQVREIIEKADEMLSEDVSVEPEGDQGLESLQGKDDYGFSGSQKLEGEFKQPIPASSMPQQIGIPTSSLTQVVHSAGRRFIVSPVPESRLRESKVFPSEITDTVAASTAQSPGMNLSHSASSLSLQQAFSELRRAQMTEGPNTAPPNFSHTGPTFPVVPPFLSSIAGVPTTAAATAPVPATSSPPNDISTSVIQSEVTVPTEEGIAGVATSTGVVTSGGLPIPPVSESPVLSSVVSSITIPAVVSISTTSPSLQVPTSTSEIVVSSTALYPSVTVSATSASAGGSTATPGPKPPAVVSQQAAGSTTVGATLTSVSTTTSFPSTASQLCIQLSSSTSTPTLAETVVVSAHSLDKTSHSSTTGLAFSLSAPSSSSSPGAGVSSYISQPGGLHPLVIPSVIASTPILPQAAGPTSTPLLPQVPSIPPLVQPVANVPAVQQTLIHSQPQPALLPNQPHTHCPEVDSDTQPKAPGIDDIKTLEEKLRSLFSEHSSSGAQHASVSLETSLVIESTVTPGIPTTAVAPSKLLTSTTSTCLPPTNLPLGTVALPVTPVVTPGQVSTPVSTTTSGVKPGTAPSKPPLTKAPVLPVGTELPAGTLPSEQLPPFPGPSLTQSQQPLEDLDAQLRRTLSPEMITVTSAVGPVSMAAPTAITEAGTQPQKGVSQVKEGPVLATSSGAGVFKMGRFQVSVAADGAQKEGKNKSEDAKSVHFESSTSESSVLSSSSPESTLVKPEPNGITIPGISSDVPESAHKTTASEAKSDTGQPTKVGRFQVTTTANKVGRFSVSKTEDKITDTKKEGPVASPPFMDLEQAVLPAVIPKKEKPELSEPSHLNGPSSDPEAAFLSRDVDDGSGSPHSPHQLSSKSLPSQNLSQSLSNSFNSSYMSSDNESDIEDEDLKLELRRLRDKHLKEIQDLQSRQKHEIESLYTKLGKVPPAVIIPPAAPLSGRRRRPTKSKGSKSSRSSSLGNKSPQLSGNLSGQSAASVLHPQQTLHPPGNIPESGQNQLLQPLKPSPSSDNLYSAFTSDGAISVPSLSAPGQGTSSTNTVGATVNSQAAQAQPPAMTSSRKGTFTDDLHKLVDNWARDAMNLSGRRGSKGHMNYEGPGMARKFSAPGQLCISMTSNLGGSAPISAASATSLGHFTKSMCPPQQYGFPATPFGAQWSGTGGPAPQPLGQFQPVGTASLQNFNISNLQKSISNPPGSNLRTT
# Description: as §1
# endogenous FES^S700C = endogenous FES^S700C (Homo sapiens, UniProt P07332, S700C); test: In situ target engagement in live HL-60 macrophages (WEL033 post-labeling); type: cell-based; set-up: endogenous in cells; host or cells: HL-60 FES^S700C clone, differentiated to macrophages or neutrophils; conditions: for Relative FES labeling (%) Mean: Supplementary Figure 13b
# endogenous FES^S700C, sequence (P07332 whole entry S700C): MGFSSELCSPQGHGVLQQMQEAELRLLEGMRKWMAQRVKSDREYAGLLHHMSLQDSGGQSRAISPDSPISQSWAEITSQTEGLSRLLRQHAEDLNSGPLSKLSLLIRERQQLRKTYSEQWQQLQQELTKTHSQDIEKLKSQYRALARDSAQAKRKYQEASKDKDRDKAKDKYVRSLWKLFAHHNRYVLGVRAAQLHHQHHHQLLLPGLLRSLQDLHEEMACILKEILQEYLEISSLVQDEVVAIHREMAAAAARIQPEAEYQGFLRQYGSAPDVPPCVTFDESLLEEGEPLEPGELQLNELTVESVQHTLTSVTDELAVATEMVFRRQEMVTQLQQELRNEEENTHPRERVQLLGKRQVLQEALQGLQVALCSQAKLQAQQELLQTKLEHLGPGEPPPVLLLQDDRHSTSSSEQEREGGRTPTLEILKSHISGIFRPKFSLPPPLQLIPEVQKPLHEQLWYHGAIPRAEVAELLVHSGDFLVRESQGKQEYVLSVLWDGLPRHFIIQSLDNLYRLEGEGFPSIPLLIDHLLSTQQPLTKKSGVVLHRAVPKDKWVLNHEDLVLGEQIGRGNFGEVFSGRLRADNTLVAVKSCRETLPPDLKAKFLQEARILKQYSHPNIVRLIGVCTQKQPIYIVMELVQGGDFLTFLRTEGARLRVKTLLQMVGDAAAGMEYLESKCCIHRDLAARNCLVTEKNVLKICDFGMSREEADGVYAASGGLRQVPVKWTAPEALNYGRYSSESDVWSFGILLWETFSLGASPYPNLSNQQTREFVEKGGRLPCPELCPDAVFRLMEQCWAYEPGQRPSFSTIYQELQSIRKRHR
# Source text: and harvested. […] Band intensities were
# Values represent means of fold enrichment (n
# FES^S700C = FES^S700C (Homo sapiens, UniProt P07332, S700C); test: In vitro TR-FRET kinase assay; type: biochemical; set-up: human FES cDNA encoding residues 448–822 or human FER cDNA encoding residues 448–820 was amplified by PCR; made in house; host or cells: E. coli BL21(DE3), co-expressing YopH phosphatase; conditions: IC50 on FES^WT divided by IC50 on FES^S700C
# FES^S700C, sequence (P07332 448-822 S700C): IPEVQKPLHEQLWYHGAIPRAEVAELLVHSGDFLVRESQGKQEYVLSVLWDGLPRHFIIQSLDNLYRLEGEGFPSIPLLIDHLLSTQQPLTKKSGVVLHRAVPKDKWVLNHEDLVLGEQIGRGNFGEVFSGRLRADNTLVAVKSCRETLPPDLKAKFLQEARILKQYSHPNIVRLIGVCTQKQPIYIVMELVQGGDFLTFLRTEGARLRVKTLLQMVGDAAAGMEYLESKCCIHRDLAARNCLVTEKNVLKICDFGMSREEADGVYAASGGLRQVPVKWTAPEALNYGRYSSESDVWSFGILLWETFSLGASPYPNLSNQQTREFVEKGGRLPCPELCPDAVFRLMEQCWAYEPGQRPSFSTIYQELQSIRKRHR
# [1] = 1 h, 1 μM WEL028, 1 h preincubation
smiles,measurement,setting,value
C#CCOc1ccc(Nc2ncc(Cl)c(Nc3ccccc3NC(=O)C=C)n2)c(OC)c1 [Compound 6],Inhibition (%),"CDK2/cyclin A; 1 μM WEL028, 1 h preincubation",-3%
same,Inhibition at 1 µM (%),"CDK2/cyclin A; CDK2/cyclin A, 1 µM, ZLYTE, ATP Km app, listed as WEL028, 1 µM",-5% and 0%
same,inhibition at 1 µM,CDKL5; [1],8%
same,Inhibition at 1 µM (%),"CDKL5; CDKL5, 1 µM, ZLYTE, ATP Km app, listed as WEL028, 1 µM",9%
same,inhibition at 1 µM,"CDKL5; read-out: Inhibition at 1 µM (%), CDKL5, 1 µM, ZLYTE, ATP Km app",7%
same,inhibition at 1 µM,PDK1 Direct; [1],5%
same,Inhibition at 1 µM (%),"PDK1 Direct; PDK1 Direct, 1 µM, ZLYTE, ATP Km app, listed as WEL028, 1 µM",3%
same,inhibition at 1 µM,"PDK1 Direct; read-out: Inhibition at 1 µM (%), PDK1 Direct, 1 µM, ZLYTE, ATP Km app",6%
same,inhibition at 1 µM,PRKCB2 (PKC beta II),0%
same,Inhibition at 1 µM (%),"STK17B (DRAK2); 1 µM, LanthaScreen Binding, listed as WEL028, 1 µM",8%
same,inhibition at 1 µM,STK17B (DRAK2); [1],9%
same,inhibition at 1 µM,"STK17B (DRAK2); read-out: Inhibition at 1 µM (%), 1 µM, LanthaScreen Binding",9%
same,Inhibition (%),"WNK1; 1 μM WEL028, 1 h preincubation",5%
same,Inhibition at 1 µM (%),"WNK1; 1 µM, LanthaScreen Binding",11%
same,IC50,"endogenous FES^S700C; live FES^S700C HL-60 macrophages, 1 h, WEL033 1 µM post-labeling, n = 3, read-out: pIC50, relative FES labeling (converted)",3.98 nM
same,Relative FES labeling (%) Mean,endogenous FES^S700C; log[WEL028] (M) -6,6.696%
same,Relative FES labeling (%) Mean,endogenous FES^S700C; log[WEL028] (M) -7,2.482%
same,Relative FES labeling (%) Mean,endogenous FES^S700C; log[WEL028] (M) -7.52288,5.093%
same,Relative FES labeling (%) Mean,endogenous FES^S700C; log[WEL028] (M) -8,18.898%
same,Relative FES labeling (%) Mean,endogenous FES^S700C; log[WEL028] (M) -8.52288,58.4122%
same,Relative FES labeling (%) Mean,endogenous FES^S700C; log[WEL028] (M) -9,92.5647%
same,Apparent fold selectivity,FES^S700C,232 fold
